From patent US20110136788A1, “THERAPEUTIC AGENT FOR IRRITABLE BOWEL SYNDROME” (priority 2008, published 2011)
Where two headings read alike, the source gives them in different places.

Assays:
[1] = system: stress-induced bowel movement; conditions: various animals, references 6-9; cited from earlier work
[2] = system: restraint stress-induced bowel movement, male C57BL/6 mice; experiment: mouse restraint stress-induced bowel movement; format: in vivo; conditions: intraperitoneal; for suppression of restraint stress-induced bowel movement: 10 min before stress loading, excreted feces in 2 hr, FIG. 2
Procedure: Male C57BL/6 mice were used under non-fasting conditions. On the day of the test, the body weight was measured, and the mice were individually bred for 2 hr. Thereafter, the mice were placed in a mouse restraint stress cage, and the number of excreted feces in 2 hr was counted. The normal group was individually bred for 2 hr, and subsequently was bred under the same conditions, the number of excreted feces in 2 hr was counted. Each drug (same as in Example 1) was suspended in 0.5% methylcellulose, and intraperitoneally administered at a dose of 10 ml/kg 10 min before stress loading.

[3] = system: rat ileum peristalsis motility; experiment: rat exo-vivo ileum peristalsis; conditions: isolated ileum of male SD rats, intraluminal pressure; FIG. 3
Procedure: Male SD rats were used under non-fasting conditions. On the day of the test, 4-5 cm of the ileum was isolated, and the oral side end and aboral side end were subjected to cannulation. 95% oxygen/5% carbon dioxide was passed therethrough and placed horizontally in a bath filled with a Krebs solution warmed to 37° C. A tube outflux on the aboral side was set at about 4 cm higher than the bath, 95% oxygen/5% carbon dioxide was passed from the tube on the oral side and perfused with a Krebs solution warmed to 37° C. at a flow rate of 10 cc/hr to induce peristalsis motility. Changes of the intraluminal pressure of the intestine due to the peristalsis motility of the ileum were recorded by a transducer from the tube on the oral side. A compound at various concentrations was added to the Krebs solution surrounding the ileum. When a compound at various concentrations was added, the Krebs solution was exchanged immediately before the addition.

mouse TGR5 = molecular target: T1, mouse TGR5 (Mus musculus, UniProt Q80SS6); experiment: cAMP production in CHO cell line expressing mouse TGR5 (CHO-mTGR5); format: cell-based
T1 construct: expressed in transfected cells; host or cells: CHO cells, expression vector pAKKO-111H
T1 sequence (Q80SS6 1-329): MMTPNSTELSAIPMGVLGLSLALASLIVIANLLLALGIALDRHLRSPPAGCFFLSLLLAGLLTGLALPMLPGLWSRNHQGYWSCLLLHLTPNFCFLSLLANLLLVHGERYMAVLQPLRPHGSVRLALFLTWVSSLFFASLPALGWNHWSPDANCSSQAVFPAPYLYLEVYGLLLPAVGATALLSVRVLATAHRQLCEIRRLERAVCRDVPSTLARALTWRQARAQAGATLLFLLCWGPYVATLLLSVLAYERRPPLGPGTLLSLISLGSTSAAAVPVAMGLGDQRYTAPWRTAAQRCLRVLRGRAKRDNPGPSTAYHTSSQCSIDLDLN
Procedure: (§1) CHO cell line expressing mouse TGR5 (CHO-mTGR5), which was prepared by a method known per se and using the mouse TGR5 expression vector, was suspended in an assay medium (Hanks' Balanced Salt Solution (Invitrogen) added with 0.2 mM isobutylmethylxanthine and 0.1% bovine albumin) at 1×10^7 cells/ml and stood at room temperature for 30 min. Then, a compound diluted with the assay medium to each concentration was added, and the mixture was stood still at room temperature for 30 min, and the cAMP amount was measured according to the protocol of ALPHA SCREEN cAMP ASSAY KIT (Perkin Elmer). […] The EC50 value was calculated by using GraphPad PRISM (GraphPad software) from the amount of cAMP produced by each compound.

rat TGR5 = molecular target: T2, rat TGR5 (Rattus norvegicus, UniProt Q80T02); experiment: cAMP production in CHO cell line expressing rat TGR5 (CHO-rTGR5); format: cell-based
T2 construct: expressed in transfected cells; host or cells: CHO cells
T2 sequence (Q80T02 1-329): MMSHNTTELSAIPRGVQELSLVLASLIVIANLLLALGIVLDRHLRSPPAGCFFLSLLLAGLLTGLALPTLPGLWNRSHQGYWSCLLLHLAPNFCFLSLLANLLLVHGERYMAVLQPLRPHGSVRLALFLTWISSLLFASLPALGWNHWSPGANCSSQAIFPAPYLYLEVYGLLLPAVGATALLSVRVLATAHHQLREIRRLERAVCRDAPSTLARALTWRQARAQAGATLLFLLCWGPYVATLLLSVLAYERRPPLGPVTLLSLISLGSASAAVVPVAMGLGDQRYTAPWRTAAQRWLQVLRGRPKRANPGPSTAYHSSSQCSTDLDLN
Procedure: [The procedure below names another species; the source lists this species under the same test.] as §1

human TGR5 = molecular target: T3, human TGR5 (Homo sapiens, UniProt Q8TDU6); experiment: cAMP production in CHO cell line expressing human TGR5 (CHO-hTGR5); format: cell-based
T3 construct: expressed in transfected cells; host or cells: CHO cells
T3 sequence (Q8TDU6 1-330): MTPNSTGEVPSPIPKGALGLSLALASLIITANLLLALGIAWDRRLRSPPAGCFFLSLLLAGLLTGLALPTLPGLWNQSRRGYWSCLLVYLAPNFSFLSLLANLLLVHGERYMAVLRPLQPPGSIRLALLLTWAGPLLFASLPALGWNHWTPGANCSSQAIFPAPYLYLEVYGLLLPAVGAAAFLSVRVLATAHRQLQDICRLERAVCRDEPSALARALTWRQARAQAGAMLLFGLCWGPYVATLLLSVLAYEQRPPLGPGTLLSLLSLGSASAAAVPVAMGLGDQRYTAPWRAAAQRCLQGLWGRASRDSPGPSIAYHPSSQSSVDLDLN
Procedure: [The procedure below names another species; the source lists this species under the same test.] as §1

[4] = CHO-rTGR5, cAMP production, read-out: EC50 value
[5] = CHO-hTGR5, cAMP production, read-out: EC50 value
[6] = Table 8, rat TGR5, read-out: EC50 (M) Rat

Row | Compound | EC50 (mouse TGR5) | EC50 (rat TGR5; [4]) | EC50 (human TGR5; [5]) | EC50 (rat TGR5; [6]) | EC50 (human TGR5; Table 8, human TGR5, read-out: EC50 (M) Human) | suppression of stress-induced bowel movement [1] | suppressive action on the restraint stress-induced bowel movement ([2]; dose 30 mg/kg) | suppression of restraint stress-induced bowel movement [2] | suppression of peristalsis motility of the ileum [3] | suppressive action on the restraint stress-induced bowel movement ([2]; dose 10 mg/kg) | suppressive action on the restraint stress-induced bowel movement ([2]; dose 3 mg/kg)
1 | Cc1[nH]cnc1CN1CCc2c(c3ccccc3n2C)C1=O [Alosetron] |  |  |  |  |  | suppress stress-induced bowel movement |  |  |  |  | 
2 | O=C1COc2nccc(-c3ccccc3F)c2CN1Cc1cc(C(F)(F)F)cc(C(F)(F)F)c1 [Compound A, 4-[3,5-bis(trifluoromethyl)benzyl]-6-(2-fluorophenyl)-4,5-dihydropyrido[3,2-f][1,4]oxazepin-3(2H)-one] |  |  |  |  |  |  | statistically significant suppressive action | suppressed a restraint stress-induced bowel movement in a dose-dependent manner | suppressed the peristalsis motility of the ileum in a dose-dependent manner |  | 
3 | CN1C(=O)C(C)(C)N(C(=O)COc2cccc3cnccc23)c2ccc(F)cc21 [Compound C, 7-fluoro-4-[(isoquinolin-5-yloxy)acetyl]-1,3,3-trimethyl-3,4-dihydroquinoxalin-2(1H)-one] | 0.025 µM | 9.9e-09 M | 2.1e-09 M | 9.9e-09 M |  |  | statistically significant suppressive action | suppressed a restraint stress-induced bowel movement in a dose-dependent manner |  | statistically significant suppressive action | 
4 | CC(c1cc(C(F)(F)F)cc(C(F)(F)F)c1)N1CCOc2nccc(-c3ccccc3)c2C1.Cl (centres unmarked) [Compound D, 4-{1-[3,5-bis(trifluoromethyl)phenyl]ethyl}-6-phenyl-2,3,4,5-tetrahydropyrido[3,2-f][1,4]oxazepine hydrochloride] | 0.73 µM | 1.2e-07 M | 1.6e-09 M | 1.2e-07 M |  |  | statistically significant suppressive action | suppressed a restraint stress-induced bowel movement in a dose-dependent manner | suppressed the peristalsis motility of the ileum in a dose-dependent manner | statistically significant suppressive action | statistically significant suppressive action

Now from value to molecule, other results behind:

Row | EC50 (mouse TGR5) | EC50 (rat TGR5; [4]) | EC50 (human TGR5; [5]) | EC50 (rat TGR5; [6]) | EC50 (human TGR5; Table 8, human TGR5, read-out: EC50 (M) Human) | Compound | suppression of stress-induced bowel movement [1] | suppressive action on the restraint stress-induced bowel movement ([2]; dose 30 mg/kg) | suppression of restraint stress-induced bowel movement [2] | suppression of peristalsis motility of the ileum [3] | suppressive action on the restraint stress-induced bowel movement ([2]; dose 10 mg/kg) | suppressive action on the restraint stress-induced bowel movement ([2]; dose 3 mg/kg)
5 | 0.025 µM | 2.4e-09 M | 6.2e-10 M |  |  | CC(c1cc(C(F)(F)F)cc(C(F)(F)F)c1)N1Cc2c(-c3ccccc3F)ccnc2OCC1=O (centres unmarked) [Compound B, 4-{1-[3,5-bis(trifluoromethyl)phenyl]ethyl}-6-(2-fluorophenyl)-4,5-dihydropyrido[3,2-f][1,4]oxazepin-3(2H)-one] |  | statistically significant suppressive action | suppressed a restraint stress-induced bowel movement in a dose-dependent manner |  |  | 
6 |  | 3.2e-07 M | 2.4e-07 M |  | 2.4e-07 M | O=C1COc2nccc(-c3ccccc3O)c2CN1Cc1cc(C(F)(F)F)cc(C(F)(F)F)c1 [Compound E, 4-[3,5-bis(trifluoromethyl)benzyl]-6-(2-hydroxyphenyl)-4,5-dihydropyrido[3,2-f][1,4]oxazepin-3(2H)-one] |  |  |  | suppressed the peristalsis motility of the ileum in a dose-dependent manner |  | 
